In patent US9409952B2, “Peptide-compound cyclization method” (Chugai Seiyaku Kabushiki Kaisha, priority 2011, dated 2016):
Where two headings read alike, the source gives them in different places. Starred links: 1 amine or outer side, 2 acyl side, 3 side chain; linkers in the order of their positions; H or OH if unused. Positions of bridges follow the written chain, without caps; N, C: chain ends. Non-standard residues stand in square brackets, D forms with d. Residues, ends and D or L forms follow the SMILES beside them. *: point of attachment. Phe(3-(CH2)4CO) = O=C([C@H](Cc1cccc(CCCCC(=O)[*:3])c1)N[*:1])[*:2]; NMeF = CN[C@@H](Cc1ccccc1)C(=O)O; NMeI = CC[C@H](C)[C@H](NC)C(=O)O; NMeβAla = CN(CCC(=O)[*:2])[*:1]; NMeL = CN[C@@H](CC(C)C)C(=O)O; NMeA = CN[C@@H](C)C(=O)O; Piperidide = C1CCN(*)CC1; dNMeA = CN[C@H](C)C(=O)O; β3hA = C[C@H](N)CC(=O)O; NPrGly = CCCNCC(=O)O; Sar = CNCC(=O)O; tBu = CC(C)(C)*

Legend:
[1] = PAMPA (parallel artificial membrane permeability assay); assay type: in vitro ADME; conditions: for Papp at 18 hours, 50 µM: PAMPA
Summary of the method: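 Artificial membrane was 10% (w/v) egg lecithin plus 0.5% (w/v) cholesterol in dodecane on a PVDF filter. A 10 mM DMSO stock was added at 0.5% (v/v) to donor buffer (50 mM MOPSO, pH 6.5, 5.0% glycocholic acid). After 18 h at 37 °C, LC/MS or LC/UV gave donor and acceptor levels for Pe.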

[2] = Metabolic stability in human hepatic microsome; assay type: in vitro ADME; conditions: microsomes
[3] = membrane permeation rate (Pe), 50 mM MOPSO buffer pH 6.5 with 5.0% glycocholic acid, 37° C., 18 hours, read-out: iPAMPA Pe
[4] = pH 7.4, human hepatic microsome, NADPH(+), read-out: CL NADPH(+)

| SMILES | Papp at 18 hours, 50 µM ([1]; pH 6.5) [×10⁻⁶ cm/s] | microsomal CLint at 1 uM ([2]; human, pH 7.4, CL NADPH(+)) [µL/min/mg] | Papp at 18 hours, 50 µM [1, 3] [×10⁻⁶ cm/s] | microsomal CLint at 1 uM [2, 4] [µL/min/mg] | iPAMPA Pe ([1]; membrane permeation rate (Pe), 50 mM MOPSO buffer pH 6.5 with 5.0% glycocholic acid, 37° C., 18 hours) |
| --- | --- | --- | --- | --- | --- |
| CC[C@H](C)[C@H]1C(=O)NCC(=O)N[C@@H](C)CC(=O)N(C)[C@H](C)C(=O)N[C@@H](Cc2ccccc2)C(=O)N(C)[C@@H](CC(C)C)C(=O)N[C@@H](COC(C)(C)C)C(=O)N[C@@H](Cc2ccccc2)C(=O)N2CCC[C@H]2C(=O)N[C@@H]([C@@H](C)O)C(=O)N[C@@H](CC(C)C)C(=O)N1C [DP-815] (cyclo(F[NMeL]S(tBu)FPTL[NMeI]G[β3hA][dNMeA])) | 42 | 104 |  |  |  |
| CC[C@H](C)[C@@H]1NC(=O)CCN(C)C(=O)C[C@@H](C(=O)N2CCCCC2)NC(=O)[C@H](CC(C)C)N(C)C(=O)[C@H](Cc2ccccc2)NC(=O)[C@H](CC(C)C)N(C)C(=O)[C@H](CC(C)C)N(C)C(=O)[C@H](C)N(C)C(=O)[C@H](CC(C)C)N(C)C(=O)[C@H]([C@@H](C)O)NC(=O)[C@H](Cc2ccccc2)N(C)C(=O)[C@H](C)N(C)C(=O)[C@H](CC(C)C)N(C)C1=O [DP-958] ([NMeβAla]I[NMeL][NMeA][NMeF]T[NMeL][NMeA][NMeL][NMeL]F[NMeL]D-Piperidide; lactam N-13) |  |  | 0.54 | 31 |  |
| CC(C)C[C@H]1C(=O)N[C@@H](Cc2ccccc2)C(=O)N[C@H](C(=O)N(C)[C@@H](Cc2ccccc2)C(=O)N[C@@H](C)C(=O)N2CCCCC2)CC(=O)N(C)[C@@H](C)C(=O)N[C@@H]([C@@H](C)O)C(=O)N(C)[C@@H](C)C(=O)N[C@@H](C(C)C)C(=O)N(C)CC(=O)N(C)[C@@H](Cc2ccccc2)C(=O)N1C [DP-311] ([NMeA]T[NMeA]V[Sar][NMeF][NMeL]FD[NMeF]A-Piperidide; lactam N-9) | 48 | 74 |  |  |  |
| CC(C)C[C@@H]1NC(=O)[C@H](Cc2ccccc2)N(C)C(=O)CCN(C)C(=O)C[C@@H](C(=O)N2CCCCC2)NC(=O)[C@H](CC(C)C)N(C)C(=O)[C@H](C)N(C)C(=O)[C@H]([C@@H](C)O)NC(=O)[C@H](CC(C)C)N(C)C(=O)[C@H](Cc2ccccc2)N(C)C1=O [DP-268] ([NMeβAla][NMeF]L[NMeF][NMeL]T[NMeA][NMeL]D-Piperidide; lactam N-9) |  |  | 50 | 508 |  |
| CC[C@H](C)[C@H]1C(=O)N[C@@H](C)C(=O)N(C)[C@@H](CC(C)C)C(=O)N[C@@H](COC(C)(C)C)C(=O)N(C)[C@@H](CC(C)C)C(=O)N[C@H](C(=O)N2CCCCC2)Cc2cccc(c2)CCCCC(=O)N[C@@H](Cc2ccccc2)C(=O)N(C)[C@@H](Cc2ccccc2)C(=O)N(C)[C@@H](CC(C)C)C(=O)N[C@@H]([C@@H](C)O)C(=O)N(C)[C@@H](C)C(=O)N1C [DP-874] (F[NMeF][NMeL]T[NMeA][NMeI]A[NMeL]S(tBu)[NMeL][Phe(3-(CH2)4CO)]-Piperidide; lactam N-11) |  |  | 0.15 | 48 |  |
| CC[C@H](C)[C@H]1C(=O)N(C)[C@@H](CC(C)C)C(=O)N[C@@H]([C@@H](C)O)C(=O)N2CCC[C@H]2C(=O)N[C@@H](Cc2ccccc2)C(=O)N[C@H](C(=O)N2CCCCC2)CC(=O)N(C)CC(=O)N(C)[C@@H](CC(C)C)C(=O)N[C@@H](Cc2ccccc2)C(=O)N[C@@H](CC(C)C)C(=O)NCC(=O)N1C [DP-106] ([Sar][NMeL]FLG[NMeI][NMeL]TPFD-Piperidide; lactam N-11) | 34 | 155 |  |  |  |
| CC(C)C[C@H]1C(=O)N(C)[C@@H](CC(C)C)C(=O)N(C)[C@@H](CC(C)C)C(=O)N[C@H](C(=O)N2CCCCC2)CC(=O)N(C)CCC(=O)N[C@@H]([C@@H](C)O)C(=O)N(C)[C@@H](C)C(=O)N(C)[C@@H](Cc2ccccc2)C(=O)N(C)[C@@H](Cc2ccccc2)C(=O)NCC(=O)N1C [DP-174] ([NMeβAla]T[NMeA][NMeF][NMeF]G[NMeL][NMeL][NMeL]D-Piperidide; lactam N-10) |  |  | 22 | 66 |  |
| CC[C@H](C)[C@H](NC(=O)[C@H](Cc1ccccc1)NC(=O)[C@@H](NC(=O)[C@@H]1CC(=O)N[C@H](C)C(=O)N(C)[C@@H](CC(C)C)C(=O)N[C@@H]([C@@H](C)O)C(=O)N(C)[C@@H](CC(C)C)C(=O)N(C)[C@@H](Cc2ccccc2)C(=O)N(C)[C@@H](CC(C)C)C(=O)N1)C(C)C)C(=O)N[C@H](C(=O)N1CCCCC1)[C@@H](C)CC [DP-917] ([dA][NMeL]T[NMeL][NMeF][NMeL]DVFII-Piperidide; lactam N-7) |  |  |  | 177 | 1.0E−07 |
| CCCN1CC(=O)N[C@@H](CC(C)C)C(=O)N[C@@H]([C@@H](C)O)C(=O)N(C)CC(=O)N(C)[C@@H](Cc2ccccc2)C(=O)N[C@@H](C)C(=O)N(C)[C@@H](Cc2ccccc2)C(=O)N(C)[C@@H](CC(C)C)C(=O)N(C)[C@@H]([C@@H](C)CC)C(=O)N(C)[C@@H](CC(C)C)C(=O)N[C@H](C(=O)N2CCCCC2)CC1=O [DP-544] ([NPrGly]LT[Sar][NMeF]A[NMeF][NMeL][NMeI][NMeL]D-Piperidide; lactam N-11) |  |  | 42 | 45 |  |
